# From paper PMC2650251 (Organic letters, 2008)
# System: not given
# Test: not given
# Conditions: cited from earlier work
row,Compound,side chain pKa
1,"N[C@@H](Cc1cc(F)c(O)c(F)c1)C(=O)O [Compound 1, 3,5-difluorotyrosine]",7.2

# Target: T1, PTP1B (Homo sapiens, UniProt P18031)
# T1 sequence (P18031 1-435): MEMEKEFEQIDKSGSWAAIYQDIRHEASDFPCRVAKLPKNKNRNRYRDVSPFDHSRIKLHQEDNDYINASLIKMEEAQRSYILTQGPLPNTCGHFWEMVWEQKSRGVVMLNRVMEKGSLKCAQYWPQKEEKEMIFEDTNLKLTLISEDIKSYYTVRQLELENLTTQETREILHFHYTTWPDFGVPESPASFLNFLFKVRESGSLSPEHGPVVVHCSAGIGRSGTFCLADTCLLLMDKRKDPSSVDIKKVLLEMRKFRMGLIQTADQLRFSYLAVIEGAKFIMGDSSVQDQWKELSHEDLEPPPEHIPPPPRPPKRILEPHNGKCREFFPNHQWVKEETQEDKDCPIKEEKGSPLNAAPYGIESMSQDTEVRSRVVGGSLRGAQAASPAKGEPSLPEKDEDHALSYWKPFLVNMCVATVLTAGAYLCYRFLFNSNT
# Test: Kinetic constants of pY peptides against PTP1B
# Assay type: biochemical
# Conditions: pH 7.4, peptide as substrate
Compound,Km [µM],kcat [s⁻¹],kcat/KM [M⁻¹ s⁻¹]
DDTF2YDpYAA-NH2 [Peptide 6],13 ± 3,36 ± 2,2.7e+06
DDTYDpYAA-NH2 [Peptide 7],14 ± 2,33 ± 1,2.3e+06
DNLF2YpYWD-NH2 [Peptide 4],3.6 ± 0.4,36 ± 1,1e+07
REYEFpYAA-NH2 [Peptide 9],6 ± 0.7,33 ± 1,5.4e+06
